In patent US9499570B2, “Boron containing small molecules” (priority 2010, dated 2016):
“Also recorded” adds a separate entry of the source.

System: Schistosoma mansoni schistosomula
Test: Schistosoma mansoni schistosomula phenotype screen in vitro
Conditions: First Set
Source text: Puerto Rican isolates of S. mansoni using Biomphalaria glabrata snails and golden hamsters as intermediate and definitive hosts, respectively, were maintained and handled in the University of California-San Francisco Sandler Center for Tropical Medicine. Patent B. glabrata snails (6-8 weeks after exposure to 5-10 infectious miracidia) were induced to shed infective larvae (cercariae) under light stimulus into the surrounding water. Cercariae were washed in rounds of ice-cold water and concentrated through and over sieves of varying pore sizes. They were then mechanically sheared (separation of heads from tails) as described in Colley D G, et al. Exp Parasitol 1974, 35:44-51, in ice-cold Incomplete Medium 169 (as described in Basch P F. J Parasitol 1981, 67:179-185, minus FBS and antibiotics) by passing 15 times through a double headed 22-gauge syringe needle connected to two 10 mL syringes. The resulting cercarial heads (schistosomula) were separated from their tails by swirling in a petri dish. Concentrated schistosomula were added to a sterile 1.5 mL centrifuge tube and allowed to settle over ice. Schistosomula were transferred to a sterile environment and washed 4 times in Incomplete Medium 169 prior to plating.
Two sets of screening were performed. In the first set, compounds were screened against schistosomula and observations were made at 24 hours, 2 days, 3 days, 4 days, and 6 days. In the second set, compounds were screened against schistosomula with observations at 24 hours, 2 days, 3 days, and 4 days and adult worms at 7 hours, 24 hours, 4 days, and 6 days.
Plates contain 200 schistosomula/well in […] complete Basch medium and were maintained at 37° C. in a 5% CO2 atmosphere. All compounds were tested in duplicate with at least two experimental replicates. Compounds and control compounds were added to the plates using the Biomek FXp using 96-well disposable tips. Final concentration of DMSO in each well was 0.5%.
A semi-quantitative and controlled nomenclature for phenotypes that can arise as a result of compound insult to both schistosomula and adults was utilized (Abdulla M H, et al., PLoS Negl Trop Dis 2009, 3:e478). Phenotypes were recorded by visual inspection and on a flexible time basis but at least at 24 h and 4 day time-points in the case of large scale screening. […] To help eliminate bias, two screen analysts scored phenotypes ‘blind’ both to knowledge of the contents of each screening plate and the phenotypes scored by his/her colleague. Upon completing their individual assessments, each analyst's ‘hit sheet’ was then compared to derive a ‘consensus hit sheet’. Discrepancies in analysts' hit sheets were re-evaluated under the microscope to eventually make a consensus hit call.
Hyper-coiled and coiled represent a verbal description of the visual phenotype as compared to the DMSO control. The + and ++ and +++ means more of the phenotype which preceded it. The − means less of the phenotype which preceded it. Results

Row | SMILES | Schistosomula phenotype day 6 | Schistosomula phenotype day 3 | also measured
1 | COCCNc1ccc(C#N)c(Oc2ccc3c(c2)COB3O)n1 [2-(1-Hydroxy-1,3-dihydro-benzo[c][1,2]oxaborol-5-yloxy)-6-(2-methoxy-ethylamino)-nicotinonitrile] | O+ R and Partial D (Partial D=partial killing of worm population) |  | 
2 | N#Cc1ccc(Oc2ccc3c(c2)COB3O)nc1OCC(F)F [2-(2,2-Difluoro-ethoxy)-6-(1-hydroxy-1,3-dihydro-benzo[c][1,2]oxaborol-5-yloxy)-nicotinonitrile] | R O+ and Partial D (Partial D=partial killing of worm population) | O+ and Deg-M (Deg-M=worms in morphological disarray but still living) | 
3 | N#Cc1ccc(Oc2ccc3c(c2)COB3O)nc1NCCOCc1ccccc1 [2-(2-Benzyloxy-ethylamino)-6-(1-hydroxy-1,3-dihydro-benzo[c][1,2]oxaborol-5-yloxy)-nicotinonitrile] | R O+ and Partial D (Partial D=partial killing of worm population) | O+ and Deg-M (Deg-M=worms in morphological disarray but still living) | Schistosomula phenotype 24 h: O+ and some and deg-M
4 | Cl.N#Cc1ccc(Oc2ccc3c(c2)COB3O)c(OCc2ccccn2)c1 [2-((5-Cyano-2-(1-hydroxy-1,3-dihydrobenzo[c][1,2]oxaborol-5-yloxy)phenoxy)methyl)pyridine hydrochloride] |  |  | Schistosomula phenotype 24 h (hydrochloride): R (R=round) and O++; Schistosomula phenotype day 2 (hydrochloride): O+, and M−; Schistosomula phenotype day 4 (hydrochloride): O+, and Partial D (Partial D=partial killing of worm population); Schistosomula phenotype day 6 (hydrochloride): O+, and Partial and D, R
5 | N#Cc1ccc(Oc2ccc3c(c2)COB3O)nc1NCc1ccccc1 [2-Benzylamino-6-(1-hydroxy-1,3-dihydro-benzo[c][1,2]oxaborol-5-yloxy)-nicotinonitrile] | R O and Partial D (Partial D=partial killing of worm population) |  | Schistosomula phenotype 24 h: O++ and some and deg-M
6 | CCOc1nc(Oc2ccc3c(c2)COB3O)ccc1C#N [2-Ethoxy-6-(1-hydroxy-1,3-dihydro-benzo[c][1,2]oxaborol-5-yloxy)-nicotinonitrile] | O+ R and Partial D (Partial D=partial killing of worm population) | O+ and partial D | 
7 | N#Cc1ccc(Oc2ccc3c(c2)COB3O)c(OCC2CCCC2)c1 [3-(Cyclopentylmethoxy)-4-(1-hydroxy-1,3-dihydrobenzo[c][1,2]oxaborol-5-yloxy)benzonitrile] |  |  | Schistosomula phenotype day 4: R O− and Deg-M D
8 | N#Cc1ccc(Oc2ccc3c(c2)COB3O)c(OC2CCCC2)c1 [3-(Cyclopentyloxy)-4-(1-hydroxy-1,3-dihydrobenzo[c][1,2]oxaborol-5-yloxy)benzonitrile] | R deg- and M D | O+ and Partial D (Partial D=partial killing of worm population) | Schistosomula phenotype 24 h: O++ and deg-M
9 | N#Cc1ccc(Oc2ccc3c(c2)COB3O)c(OCC2CC2)c1 [3-(Cyclopropylmethoxy)-4-(1-hydroxy-1,3-dihydrobenzo[c][1,2]oxaborol-5-yloxy)benzonitrile] |  | O+ and partial D | 
10 | COCCOc1nccc(Oc2ccc3c(c2)COB3O)c1C#N [4-(1-Hydroxy-1,3-dihydro-benzo[c][1,2]oxaborol-5-yloxy)-2-(2-methoxyethoxy)-nicotinonitrile] | O+ R and Partial D (Partial D=partial killing of worm population) | O+ and some and partial D | Schistosomula phenotype 24 h: R (R=round) and O+
11 | CC(C)OC(=O)c1ccc(Oc2ccc3c(c2)COB3O)c(F)c1 [5-(2-Fluoro-4-isopropyloxycarbonylphenoxy)-1-hydroxy-2,1-benzoxaborole] |  |  | Schistosomula phenotype day 4: O−, R
12 | N#Cc1ccc(Oc2ccc3c(c2)COB3O)cc1C(F)(F)F [5-(4-Cyano-3-trifluoromethylphenoxy)-1,3-dihydro-1-hydroxy-2,1-benzoxaborole] | O, (O=overactive) and some and deg-m |  | Schistosomula phenotype day 2: O−, and deg-m−; Schistosomula phenotype day 4: O, (O=overactive) and some and deg-m
13 | CCOC(=O)c1ccc(Oc2ccc3c(c2)COB3O)c(Oc2cc(C#N)ccn2)c1 [5-[4-Ethoxycarbonyl-2-(4-cyanopyridin-2-yloxy)phenoxy]-1,3-dihydro-1-hydroxy-2,1-benzoxaborole] | R, O,; also recorded: Partial D (Partial D=partial killing of worm population) |  | Schistosomula phenotype day 2: O, (O=overactive); also recorded: deg-m; Schistosomula phenotype day 4: O, (O=overactive) and some and deg-m
14 | N#Cc1ccc(Oc2ccc3c(c2)COB3O)nc1OCC(F)(F)F [6-(1-Hydroxy-1,3-dihydro-benzo[c][1,2]oxaborol-5-yloxy)-2-(2,2,2-trifluoro-ethoxy)-nicotinonitrile] | O+ R and Partial D (Partial D=partial killing of worm population) |  | 
15 | COCCNc1nc(Oc2ccc3c(c2)COB3O)ccc1C#N [6-(1-Hydroxy-1,3-dihydro-benzo[c][1,2]oxaborol-5-yloxy)-2-(2-methoxy-ethylamino)-nicotinonitrile] | R O and some and partial D |  | 
16 | CC(=O)OCCOc1nc(Oc2ccc3c(c2)COB3O)ccc1C#N [6-(1-Hydroxy-1,3-dihydro-benzo[c][1,2]oxaborol-5-yloxy)-2-(acetyloxyethoxy)-nicotinonitrile] | R O+ and Partial D (Partial D=partial killing of worm population) | O+ and partial D | 
17 | CC(C)COc1nc(Oc2ccc3c(c2)COB3O)ccc1C#N [6-(1-Hydroxy-1,3-dihydro-benzo[c][1,2]oxaborol-5-yloxy)-2-isobutoxy-nicotinonitrile] |  |  | Schistosomula phenotype 24 h: R− and O−; Schistosomula phenotype day 4: R (R=round) and O−
18 | CC(C)Oc1nc(Oc2ccc3c(c2)COB3O)ccc1C#N [6-(1-Hydroxy-1,3-dihydro-benzo[c][1,2]oxaborol-5-yloxy)-2-isopropoxy-nicotinonitrile] | R O+ and Partial D (Partial D=partial killing of worm population) | O+ and Deg-M (Deg-M=worms in morphological disarray but still living) | 
19 | CCCOc1nc(Oc2ccc3c(c2)COB3O)ccc1C#N [6-(1-Hydroxy-1,3-dihydro-benzo[c][1,2]oxaborol-5-yloxy)-2-propoxy-nicotinonitrile] | R O and partial D | O+ and Deg-M (Deg-M=worms in morphological disarray but still living) | 
20 | N#Cc1ccc(Oc2ccc3c(c2)COB3O)nc1N1CCCC1 [6-(1-Hydroxy-1,3-dihydro-benzo[c][1,2]oxaborol-5-yloxy)-2-pyrrolidin-1-yl-nicotinonitrile] | R O and Partial D (Partial D=partial killing of worm population) | O+ and Deg-M (Deg-M=worms in morphological disarray but still living) | 
21 | N#Cc1cnc(Oc2ccc3c(c2)COB3O)cc1OCCOC1CCCCO1 (centres unmarked) [6-(1-Hydroxy-1,3-dihydro-benzo[c][1,2]oxaborol-5-yloxy)-4-[2-(tetrahydro-pyran-2-yloxy)-ethoxy]-nicotinonitrile] | Deg-M D | O++ and deg-M | Schistosomula phenotype 24 h: O++ and deg-M
22 | COCCN(C)c1nc(Oc2ccc3c(c2)COB3O)ccc1C#N [6-(1-hydroxy-1,3-dihydro-benzo[c][1,2]oxaborol-5-yloxy)-2-[(2-methoxy-ethyl)-methyl-amino]-nicotinonitrile] | R O and Partial D (Partial D=partial killing of worm population) | O+ and Deg-M (Deg-M=worms in morphological disarray but still living) | 
23 | CCOC(=O)c1ccc(Oc2ccc3c(c2)COB3O)nc1OCC [Ethyl 2-ethoxy-6-(1-hydroxy-1,3-dihydrobenzo[c][1,2]oxaborol-5-yloxy)nicotinate] | R, (R=round); also recorded: Partial D (Partial D=partial killing of worm population) |  | Schistosomula phenotype day 2: (shrunk); Schistosomula phenotype day 4: O, (O=overactive); also recorded: deg-m
24 | CCOC(=O)c1cnc(Oc2ccc3c(c2)COB3O)c(Cl)c1 [Ethyl 5-chloro-6-(1-hydroxy-1,3-dihydrobenzo[c][1,2]oxaborol-5-yloxy)nicotinate] | R O and deg-M and partial D |  | 
